Data: ChEMBL document CHEMBL3407397, “Effect of size and N-terminal residue characteristics on bacterial cell penetration and antibacterial activity of the proline-rich peptide Bac7” (J Med Chem, 2015)
Values after ≈ are worked out from the molar mass of the structure shown. Active and inactive are the calls of the source. No cut-off for these calls is given here. Non-standard residues stand in square brackets, D forms with d. Residues, ends and D or L forms follow the SMILES beside them. *: point of attachment. Arg(NO2) = N=C(NCCC[C@H](N)C(=O)O)N[N+](=O)[O-]; Gly(N-(CH2)3-guanidino) = N=C(N)NCCCNCC(=O)O; Arg(Me2a) = CN(C)C(=N)NCCC[C@H](N)C(=O)O; X1 = F[B-]1(F)n2c(ccc2*)C=C2C=CC=[N+]21

Columns and labels:
Escherichia coli [1] = assay: Antimicrobial activity against Escherichia coli ATCC 25922 incubated for 18 hrs at 37 degC by broth microdilution method; type: functional; settings: ATCC 25922, 18 h
Escherichia coli [2] = assay: Antimicrobial activity against O-antigen lacking LPS containing wild type Escherichia coli BW25113 incubated for 18 hrs at 37 degC by broth microdilution method; type: functional; settings: BW25113, 18 h
Escherichia coli [3] = assay: Antimicrobial activity against delta-waaG deletion mutant containing Escherichia coli BW25113 incubated for 18 hrs at 37 degC by broth microdilution method; type: functional; settings: BW25113, 18 h
Escherichia coli [4] = assay: Antimicrobial activity against delta-sbmA deletion mutant containing Escherichia coli BW25113 incubated for 18 hrs at 37 degC by broth microdilution method; type: functional; settings: BW25113, 18 h
Escherichia coli [5] = assay: Drug uptake in Escherichia coli ATCC 25922 assessed as mean fluorescence intensity using BODIPY-labeled compound at 0.25 to 4 uM incubated for 10 mins by flow cytometry; type: ADME, organism-based; settings: in vivo
Escherichia coli [6] = assay: Drug uptake in Escherichia coli ATCC 25922 assessed as mean fluorescence intensity using BODIPY-labeled compound at 0.25 to 4 uM incubated for 10 mins in presence of trypan blue quencher by flow cytometry; type: ADME, organism-based; settings: in vivo
Escherichia coli [7] = assay: Drug uptake in Escherichia coli ATCC 25922 assessed as mean fluorescence intensity using BODIPY-labeled compound at 0.25 to 4 uM incubated for 60 mins by flow cytometry; type: ADME, organism-based; settings: in vivo, 1 h
Escherichia coli [8] = assay: Drug uptake in Escherichia coli ATCC 25922 assessed as mean fluorescence intensity using BODIPY-labeled compound at 0.25 to 4 uM incubated for 60 mins in presence of trypan blue quencher by flow cytometry; type: ADME, organism-based; settings: in vivo, 1 h
Escherichia coli [9] = assay: Antimicrobial activity against Escherichia coli HB101 incubated for 18 hrs at 37 degC by broth microdilution method; type: functional; settings: HB101, 18 h
Escherichia coli [10] = assay: Drug uptake in O-antigen lacking LPS containing wild type Escherichia coli BW25113 at 1 uM up to 3.5 hrs in presence of trypan blue quencher; type: ADME, organism-based; settings: in vivo
Escherichia coli [11] = assay: Bacteriostatic activity against O-antigen lacking LPS containing wild type Escherichia coli BW25113 at 4 uM incubated for 3.5 hrs; type: functional, organism-based
Escherichia coli [12] = assay: Bacteriostatic activity against delta-waaG deletion mutant containing wild type Escherichia coli BW25113 at 4 uM incubated for 3.5 hrs; type: functional, organism-based

Row | MIC (Escherichia coli [9]) | Molecule | MIC (Escherichia coli [1]) | MIC (Escherichia coli [2]) | MIC (Escherichia coli [3]) | MIC (Escherichia coli [4]) | further results
1 | – | CC[C@H](C)[C@H](NC(=O)[C@@H](CCCNC(=N)N)NC(=O)[C@H](N)CCCNC(=N)N)C(=O)N[C@@H](CCCNC(=N)N)C(=O)N1CCC[C@H]1C(=O)N[C@@H](CCCNC(=N)N)C(=O)N1CCC[C@H]1C(=O)N1CCC[C@H]1C(=O)N[C@@H](CCCNC(=N)N)C(=O)N[C@@H](CC(C)C)C(=O)N1CCC[C@H]1C(=O)N[C@@H](CCCNC(=N)N)C(=O)N1CCC[C@H]1C(=O)N[C@@H](CCCNC(=N)N)C(=O)N1CCC[C@H]1C(=O)N[C@@H](CCCNC(=N)N)C(=O)N1CCC[C@H]1C(=O)N[C@@H](CC(C)C)C(=O)N1CCC[C@H]1C(=O)N[C@@H](Cc1ccc(O)cc1)C(=O)N1CCC[C@H]1C(=O)N[C@@H](CCCNC(=N)N)C(=O)N1CCC[C@H]1C(=O)O | 4 µM (≈ 11.6 µg/mL) | 4 µM (≈ 11.6 µg/mL) | 2 µM (≈ 5.8 µg/mL) | 16 µM (≈ 46.4 µg/mL) | –
2 | 1 µM (≈ 2.21 µg/mL) | CC[C@H](C)[C@H](NC(=O)[C@H](CCCNC(=N)N)NC(=O)[C@@H](N)CCCNC(=N)N)C(=O)N[C@@H](CCCNC(=N)N)C(=O)N1CCC[C@H]1C(=O)N[C@@H](CCCNC(=N)N)C(=O)N1CCC[C@H]1C(=O)N1CCC[C@H]1C(=O)N[C@@H](CCCNC(=N)N)C(=O)N[C@@H](CC(C)C)C(=O)N1CCC[C@H]1C(=O)N[C@@H](CCCNC(=N)N)C(=O)N1CCC[C@H]1C(=O)N[C@@H](CCCNC(=N)N)C(=O)N1CCC[C@H]1C(=O)N[C@@H](CSc1ccc2n1[B-](F)(F)[N+]1=CC=CC1=C2)C(=O)O (H-RRIRPRPPRLPRPRPC(X1)-OH) | 1 µM (≈ 2.21 µg/mL) | – | – | – | Drug uptake (Escherichia coli [5]): Not Active; Drug uptake (Escherichia coli [6]): Not Active; Drug uptake (Escherichia coli [7]): Not Active; Drug uptake (Escherichia coli [8]): Not Active
3 | 0.5 µM (≈ 1.18 µg/mL) | CC[C@H](C)[C@H](NC(=O)[C@H](CCCNC(=N)N)NC(=O)[C@@H](N)CCCNC(=N)N)C(=O)N[C@@H](CCCNC(=N)N)C(=O)N1CCC[C@H]1C(=O)N[C@@H](CCCNC(=N)N)C(=O)N1CCC[C@H]1C(=O)N1CCC[C@H]1C(=O)N[C@@H](CCCNC(=N)N)C(=O)N[C@@H](CC(C)C)C(=O)N1CCC[C@H]1C(=O)N[C@@H](CCCNC(=N)N)C(=O)N1CCC[C@H]1C(=O)N[C@@H](CCCNC(=N)N)C(=O)N1CCC[C@H]1C(=O)N[C@@H](CCCNC(=N)N)C(=O)N[C@@H](CSc1ccc2n1[B-](F)(F)[N+]1=CC=CC1=C2)C(=O)O (H-RRIRPRPPRLPRPRPRC(X1)-OH) | 0.5 µM (≈ 1.18 µg/mL) | – | – | – | –
4 | – | CC[C@H](C)[C@H](NC(=O)[C@H](CCCNC(=N)N)NC(=O)[C@@H](N)CCCNC(=N)N)C(=O)N[C@@H](CCCNC(=N)N)C(=O)N1CCC[C@H]1C(=O)N[C@@H](CCCNC(=N)N)C(=O)N1CCC[C@H]1C(=O)N1CCC[C@H]1C(=O)N[C@@H](CCCNC(=N)N)C(=O)N[C@@H](CC(C)C)C(=O)N1CCC[C@H]1C(=O)N[C@@H](CCCNC(=N)N)C(=O)N1CCC[C@H]1C(=O)N[C@@H](CCCNC(=N)N)C(=O)N1CCC[C@H]1C(=O)N[C@@H](CCCNC(=N)N)C(=O)N1CCC[C@H]1C(=O)N[C@@H](CC(C)C)C(=O)N1CCC[C@H]1C(=O)N[C@@H](Cc1ccccc1)C(=O)N1CCC[C@H]1C(=O)N[C@@H](CCCNC(=N)N)C(=O)N1CCC[C@H]1C(=O)N[C@@H](CSc1ccc2n1[B-](F)(F)[N+]1=CC=CC1=C2)C(=O)O (H-RRIRPRPPRLPRPRPRPLPFPRPC(X1)-OH) | – | – | – | – | Drug uptake (Escherichia coli [5]): Active; Drug uptake (Escherichia coli [6]): Active; Drug uptake (Escherichia coli [7]): Active; Drug uptake (Escherichia coli [8]): Active; Drug uptake (Escherichia coli [10]): Not Active
5 | – | CC[C@H](C)[C@H](NC(=O)[C@H](CCCNC(=N)N(C)C)NC(=O)[C@@H](N)CCCNC(=N)N)C(=O)N[C@@H](CCCNC(=N)N)C(=O)N1CCC[C@H]1C(=O)N[C@@H](CCCNC(=N)N)C(=O)N1CCC[C@H]1C(=O)N1CCC[C@H]1C(=O)N[C@@H](CCCNC(=N)N)C(=O)N[C@@H](CC(C)C)C(=O)N1CCC[C@H]1C(=O)N[C@@H](CCCNC(=N)N)C(=O)N1CCC[C@H]1C(=O)N[C@@H](CCCNC(=N)N)C(=O)N1CCC[C@H]1C(=O)N[C@@H](CCCNC(=N)N)C(=O)N1CCC[C@H]1C(=O)N[C@@H](CC(C)C)C(=O)N1CCC[C@H]1C(=O)N[C@@H](Cc1ccc(O)cc1)C(=O)N1CCC[C@H]1C(=O)N[C@@H](CCCNC(=N)N)C(=O)N1CCC[C@H]1C(=O)O (H-R[Arg(Me2a)]IRPRPPRLPRPRPRPLPYPRP-OH) | 4 µM (≈ 11.7 µg/mL) | 4 µM (≈ 11.7 µg/mL) | 1 µM (≈ 2.93 µg/mL) | 8 µM (≈ 23.4 µg/mL) | –
6 | – | CC[C@H](C)[C@H](NC(=O)[C@H](CCCNC(=N)N)NC(=O)[C@@H](N)CCCNC(=N)N(C)C)C(=O)N[C@@H](CCCNC(=N)N)C(=O)N1CCC[C@H]1C(=O)N[C@@H](CCCNC(=N)N)C(=O)N1CCC[C@H]1C(=O)N1CCC[C@H]1C(=O)N[C@@H](CCCNC(=N)N)C(=O)N[C@@H](CC(C)C)C(=O)N1CCC[C@H]1C(=O)N[C@@H](CCCNC(=N)N)C(=O)N1CCC[C@H]1C(=O)N[C@@H](CCCNC(=N)N)C(=O)N1CCC[C@H]1C(=O)N[C@@H](CCCNC(=N)N)C(=O)N1CCC[C@H]1C(=O)N[C@@H](CC(C)C)C(=O)N1CCC[C@H]1C(=O)N[C@@H](Cc1ccc(O)cc1)C(=O)N1CCC[C@H]1C(=O)N[C@@H](CCCNC(=N)N)C(=O)N1CCC[C@H]1C(=O)O (H-[Arg(Me2a)]RIRPRPPRLPRPRPRPLPYPRP-OH) | 2 µM (≈ 5.85 µg/mL) | 2 µM (≈ 5.85 µg/mL) | 0.5 µM (≈ 1.46 µg/mL) | 8 µM (≈ 23.4 µg/mL) | –
7 | – | CC[C@H](C)[C@H](NC(=O)[C@H](CCCNC(=N)N(C)C)NC(=O)[C@@H](N)CCCNC(=N)N(C)C)C(=O)N[C@@H](CCCNC(=N)N)C(=O)N1CCC[C@H]1C(=O)N[C@@H](CCCNC(=N)N)C(=O)N1CCC[C@H]1C(=O)N1CCC[C@H]1C(=O)N[C@@H](CCCNC(=N)N)C(=O)N[C@@H](CC(C)C)C(=O)N1CCC[C@H]1C(=O)N[C@@H](CCCNC(=N)N)C(=O)N1CCC[C@H]1C(=O)N[C@@H](CCCNC(=N)N)C(=O)N1CCC[C@H]1C(=O)N[C@@H](CCCNC(=N)N)C(=O)N1CCC[C@H]1C(=O)N[C@@H](CC(C)C)C(=O)N1CCC[C@H]1C(=O)N[C@@H](Cc1ccc(O)cc1)C(=O)N1CCC[C@H]1C(=O)N[C@@H](CCCNC(=N)N)C(=O)N1CCC[C@H]1C(=O)O (H-[Arg(Me2a)][Arg(Me2a)]IRPRPPRLPRPRPRPLPYPRP-OH) | 8 µM (≈ 23.6 µg/mL) | 8 µM (≈ 23.6 µg/mL) | 2 µM (≈ 5.91 µg/mL) | 16 µM (≈ 47.3 µg/mL) | –
8 | – | CC[C@H](C)[C@H](NC(=O)[C@H](CCCNC(=N)N)NC(=O)[C@@H](N)CCCN/C(N)=N\[N+](=O)[O-])C(=O)N[C@@H](CCCNC(=N)N)C(=O)N1CCC[C@H]1C(=O)N[C@@H](CCCNC(=N)N)C(=O)N1CCC[C@H]1C(=O)N1CCC[C@H]1C(=O)N[C@@H](CCCNC(=N)N)C(=O)N[C@@H](CC(C)C)C(=O)N1CCC[C@H]1C(=O)N[C@@H](CCCNC(=N)N)C(=O)N1CCC[C@H]1C(=O)N[C@@H](CCCNC(=N)N)C(=O)N1CCC[C@H]1C(=O)N[C@@H](CCCNC(=N)N)C(=O)N1CCC[C@H]1C(=O)N[C@@H](CC(C)C)C(=O)N1CCC[C@H]1C(=O)N[C@@H](Cc1ccc(O)cc1)C(=O)N1CCC[C@H]1C(=O)N[C@@H](CCCNC(=N)N)C(=O)N1CCC[C@H]1C(=O)O (H-[Arg(NO2)]RIRPRPPRLPRPRPRPLPYPRP-OH) | 4 µM (≈ 11.8 µg/mL) | 4 µM (≈ 11.8 µg/mL) | 1 µM (≈ 2.94 µg/mL) | 8 µM (≈ 23.5 µg/mL) | –
9 | – | CC[C@H](C)[C@H](NC(=O)CN(CCCNC(=N)N)C(=O)CNCCCNC(=N)N)C(=O)N[C@@H](CCCNC(=N)N)C(=O)N1CCC[C@H]1C(=O)N[C@@H](CCCNC(=N)N)C(=O)N1CCC[C@H]1C(=O)N1CCC[C@H]1C(=O)N[C@@H](CCCNC(=N)N)C(=O)N[C@@H](CC(C)C)C(=O)N1CCC[C@H]1C(=O)N[C@@H](CCCNC(=N)N)C(=O)N1CCC[C@H]1C(=O)N[C@@H](CCCNC(=N)N)C(=O)N1CCC[C@H]1C(=O)N[C@@H](CCCNC(=N)N)C(=O)N1CCC[C@H]1C(=O)N[C@@H](CC(C)C)C(=O)N1CCC[C@H]1C(=O)N[C@@H](Cc1ccc(O)cc1)C(=O)N1CCC[C@H]1C(=O)N[C@@H](CCCNC(=N)N)C(=O)N1CCC[C@H]1C(=O)O (H-[Gly(N-(CH2)3-guanidino)][Gly(N-(CH2)3-guanidino)]IRPRPPRLPRPRPRPLPYPRP-OH) | 1 µM (≈ 2.9 µg/mL) | 0.5 µM (≈ 1.45 µg/mL) | 0.5 µM (≈ 1.45 µg/mL) | 8 µM (≈ 23.2 µg/mL) | –
10 | – | H-IRPRPPRLPRPRPRPLPYPRP-OH | 8 µM | 8 µM | 4 µM | 32 µM | Activity (Escherichia coli [11]): Active; Activity (Escherichia coli [12]): Active
11 | – | H-KKIRPRPPRLPRPRPRPLPYPRP-OH | 4 µM | 4 µM | 2 µM | 16 µM | –
12 | 64 µM | H-RRIRPRPPRLPRP-OH | > 128 µM | – | – | – | –
13 | 128 µM | H-RRIRPRPPRLPRPC-OH | > 128 µM | – | – | – | –
14 | 16 µM | H-RRIRPRPPRLPRPRP-OH | 32 µM | – | – | – | –
15 | 8 µM | H-RRIRPRPPRLPRPRPC-OH | 8 µM | – | – | – | –
16 | 0.5 µM | H-RRIRPRPPRLPRPRPR-OH | 0.5 µM | – | – | – | –
